Read-outs that look alike come from different tables or passages of the source.
Tests used:
[1] = human, in vivo, po
[2] = 0.1 μM drug preincubated with serum 10 min at 37°

| SMILES | Drug level recovered in the radioreceptor assay [2] | other results |
| --- | --- | --- |
| CN1CCN(CCCN2c3ccccc3Sc3ccc(C(F)(F)F)cc32)CC1 [trifluoperazine] | 160 ± 200 nM | – |
| OCCN1CCN(CCCN2c3ccccc3Sc3ccc(C(F)(F)F)cc32)CC1 [fluphenazine] | 120 ± 10 nM | – |
| O=C(CCCN1CCC(O)(c2ccc(Cl)cc2)CC1)c1ccc(F)cc1 [Haloperidol] | – | concentration [1]: 10 to 350 nM |
| CN(C)CCCN1c2ccccc2Sc2ccc(Cl)cc21 [chlorpromazine] | – | Drug level recovered in the radioreceptor assay (1 μM drug preincubated with serum 10 min at 37°): 1000 ± 100 nM |

Reference: patent publication US4197288A, “Neuroleptic radioreceptor assay method and kit” (Burroughs Wellcome Co., priority 1977, dated 1980)
